Source: patent publication US9580437B2, “Triazolopyrimidine compounds and uses thereof” (Novartis AG, priority 2014, dated 2017)

Columns and labels:
EED (1-441)-His protein = EED (1-441)-His protein (Homo sapiens (Human), UniProt O75530); assay: EED-H3K27Me3 peptide competition binding assay by AlphaScreen; conditions: read-out: (a) IC50 EED Alphascreen binding Qualified
Text: EED-H3K27Me3 peptide competition binding assay by AlphaScreen (α-screen)

[1] = target: wild type PRC2 (wtPRC2) complex (Homo sapiens (Human), UniProt O75530); assay: EED LC-MS assay; type: biochemical; conditions: read-out: (b) IC50 EED LC-MS Qualified
wild type PRC2 (wtPRC2) complex, sequence (O75530 whole entry): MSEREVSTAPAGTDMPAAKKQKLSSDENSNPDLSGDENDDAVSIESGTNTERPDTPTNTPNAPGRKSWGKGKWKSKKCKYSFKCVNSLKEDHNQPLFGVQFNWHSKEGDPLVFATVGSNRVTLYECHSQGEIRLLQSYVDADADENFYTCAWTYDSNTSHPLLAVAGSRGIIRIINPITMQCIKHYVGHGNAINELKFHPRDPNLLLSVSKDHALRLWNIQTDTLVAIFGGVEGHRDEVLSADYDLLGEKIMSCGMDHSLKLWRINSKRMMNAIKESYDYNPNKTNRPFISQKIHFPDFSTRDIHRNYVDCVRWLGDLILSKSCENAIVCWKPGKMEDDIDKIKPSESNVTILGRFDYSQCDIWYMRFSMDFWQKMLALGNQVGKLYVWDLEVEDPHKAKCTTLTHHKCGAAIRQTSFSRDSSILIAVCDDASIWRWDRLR
wild type PRC2 (wtPRC2) complex, sequence (Q15910 whole entry partner): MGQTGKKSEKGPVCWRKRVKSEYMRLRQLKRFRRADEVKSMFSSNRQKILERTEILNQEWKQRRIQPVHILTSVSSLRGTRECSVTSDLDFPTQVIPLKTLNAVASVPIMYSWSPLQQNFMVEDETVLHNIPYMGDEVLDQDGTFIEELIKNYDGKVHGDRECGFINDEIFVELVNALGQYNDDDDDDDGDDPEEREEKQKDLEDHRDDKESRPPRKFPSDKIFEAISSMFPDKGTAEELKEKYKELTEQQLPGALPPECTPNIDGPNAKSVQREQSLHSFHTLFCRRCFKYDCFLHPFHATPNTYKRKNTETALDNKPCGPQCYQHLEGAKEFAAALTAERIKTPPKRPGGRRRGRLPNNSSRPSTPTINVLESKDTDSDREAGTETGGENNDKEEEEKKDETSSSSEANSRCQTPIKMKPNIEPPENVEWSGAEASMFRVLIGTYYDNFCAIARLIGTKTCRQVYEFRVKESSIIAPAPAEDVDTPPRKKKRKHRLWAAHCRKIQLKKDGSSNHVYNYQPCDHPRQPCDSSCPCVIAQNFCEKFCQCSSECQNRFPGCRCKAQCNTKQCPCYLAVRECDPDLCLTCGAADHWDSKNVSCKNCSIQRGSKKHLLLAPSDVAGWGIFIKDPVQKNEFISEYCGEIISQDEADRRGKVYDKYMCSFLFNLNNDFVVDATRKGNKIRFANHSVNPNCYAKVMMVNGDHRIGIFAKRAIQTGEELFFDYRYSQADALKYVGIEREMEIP
wild type PRC2 (wtPRC2) complex, sequence (Q15022 whole entry partner): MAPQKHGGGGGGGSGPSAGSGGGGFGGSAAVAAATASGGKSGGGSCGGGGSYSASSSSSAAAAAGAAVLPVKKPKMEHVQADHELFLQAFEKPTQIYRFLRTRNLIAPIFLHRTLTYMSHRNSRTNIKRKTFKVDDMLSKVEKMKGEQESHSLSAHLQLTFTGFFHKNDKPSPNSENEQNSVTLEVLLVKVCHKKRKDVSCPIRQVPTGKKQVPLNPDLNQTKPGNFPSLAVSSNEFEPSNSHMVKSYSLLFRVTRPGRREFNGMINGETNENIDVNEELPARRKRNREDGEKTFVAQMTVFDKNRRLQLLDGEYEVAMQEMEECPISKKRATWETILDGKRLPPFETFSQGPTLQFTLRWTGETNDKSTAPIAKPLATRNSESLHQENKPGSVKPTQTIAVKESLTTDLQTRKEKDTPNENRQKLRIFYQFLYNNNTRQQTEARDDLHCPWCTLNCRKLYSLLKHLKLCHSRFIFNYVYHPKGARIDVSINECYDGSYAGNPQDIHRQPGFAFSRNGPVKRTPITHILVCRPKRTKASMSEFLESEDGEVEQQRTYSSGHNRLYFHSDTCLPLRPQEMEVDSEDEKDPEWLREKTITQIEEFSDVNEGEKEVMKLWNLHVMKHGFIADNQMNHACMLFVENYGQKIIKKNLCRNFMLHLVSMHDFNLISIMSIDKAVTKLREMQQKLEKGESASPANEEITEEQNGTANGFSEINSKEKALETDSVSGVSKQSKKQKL
Experimental: A 6 μL solution of 3 μM of the peptide substrate H3K27Me0 (histone H3[21-44]-biotin) in reaction buffer was added to initiate each reaction. […] ELISA (H3K27 Methylation) Assay

EED (1-441)-His protein, sequence (O75530 whole entry): as the sequence (O75530 whole entry) above

| SMILES | IC50 (EED (1-441)-His protein) [nM] | IC50 [1] [nM] |
| --- | --- | --- |
| CS(=O)(=O)Nc1ccc(-c2cnc(NCc3cccc4c3CCO4)n3cnnc23)cc1F [Example 33, N-(4-(5-(((2,3-dihydrobenzofuran-4-yl)methyl)amino)-[1,2,4]triazolo[4,3-c]pyrimidin-8-yl)-2-fluorophenyl)methanesulfonamide] | 28.5 | 17.5 |
| OCCn1cc(-c2cnc(NCc3cccc4c3CCO4)n3cnnc23)cn1 [Example 34, 2-(4-(5-(((2,3-dihydrobenzofuran-4-yl)methyl)amino)-[1,2,4]triazolo[4,3-c]pyrimidin-8-yl)-1H-pyrazol-1-yl)ethanol] | 37.5 | 49.4 |
| CN(C)CCc1ccc(-c2cnc(NCc3cccc4c3CCO4)n3cnnc23)cc1 [Example 35, N-((2,3-dihydrobenzofuran-4-yl)methyl)-8-(4-(2-(dimethylamino)ethyl)phenyl)-[1,2,4]triazolo[4,3-c]pyrimidin-5-amine] | 8.3 | 15.3 |
| Cc1cc(-c2cnc(NCc3cccc4c3CCO4)n3cnnc23)cnc1N1CCN(C)CC1 [Example 36, N-((2,3-dihydrobenzofuran-4-yl)methyl)-8-(5-methyl-6-(4-methylpiperazin-1-yl)pyridin-3-yl)-[1,2,4]triazolo[4,3-c]pyrimidin-5-amine] | 18.5 | 22.4 |
| CS(=O)(=O)c1ccc(-c2cnc(NCc3c(F)ccc4c3CCO4)n3cnnc23)cc1 [Example 37, N-((5-fluoro-2,3-dihydrobenzofuran-4-yl)methyl)-8-(4-(methylsulfonyl)phenyl)-[1,2,4]triazolo[4,3-c]pyrimidin-5-amine] | 12.3 | 20.7 |
| OCCOc1ccc(-c2cnc(NCc3cccc4c3CCO4)n3cnnc23)cc1 [Example 38, 2-(4-(5-(((2,3-dihydrobenzofuran-4-yl)methyl)amino)-[1,2,4]triazolo[4,3-c]pyrimidin-8-yl)phenoxy)ethanol] | 24.2 | 34.9 |
| CS(=O)(=O)Nc1ccc(-c2cnc(NCc3c(F)ccc4c3CCO4)n3cnnc23)cc1F [Example 39, N-(2-fluoro-4-(5-(((5-fluoro-2,3-dihydrobenzofuran-4-yl)methyl)amino)-[1,2,4]triazolo[4,3-c]pyrimidin-8-yl)phenyl)methanesulfonamide] | 17.8 | 17.5 |
| O=S(=O)(NCCO)c1ccc(-c2cnc(NCc3cccc4c3CCO4)n3cnnc23)cc1 [Example 40, 4-(5-(((2,3-dihydrobenzofuran-4-yl)methyl)amino)-[1,2,4]triazolo[4,3-c]pyrimidin-8-yl)-N-(2-hydroxyethyl)benzenesulfonamide] | 56.2 | 56.6 |
| O=C(c1ccc(-c2cnc(NCc3cccc4c3CCO4)n3cnnc23)cc1)N1CCNCC1 [Example 41, (4-(5-(((2,3-dihydrobenzofuran-4-yl)methyl)amino)-[1,2,4]triazolo[4,3-c]pyrimidin-8-yl)phenyl)(piperazin-1-yl)methanone] | 13.2 | 9.7 |
| CN(C)C(=O)c1ccc(-c2cnc(NCc3cccc4c3CCO4)n3cnnc23)cc1 [Example 42, 4-(5-(((2,3-dihydrobenzofuran-4-yl)methyl)amino)-[1,2,4]triazolo[4,3-c]pyrimidin-8-yl)-N,N-dimethylbenzamide] | 52.5 | 86.1 |
| CN(C)C(=O)c1cccc(-c2cnc(NCc3cccc4c3CCO4)n3cnnc23)c1 [Example 43, 3-(5-(((2,3-dihydrobenzofuran-4-yl)methyl)amino)-[1,2,4]triazolo[4,3-c]pyrimidin-8-yl)-N,N-dimethylbenzamide] | 30.9 | 33.1 |
| Fc1ccc2c(c1CNc1ncc(-c3cccnc3)c3nncn13)CCO2 [Example 44, N-((5-fluoro-2,3-dihydrobenzofuran-4-yl)methyl)-8-(pyridin-3-yl)-[1,2,4]triazolo[4,3-c]pyrimidin-5-amine] | 12.8 | 19.2 |
| Fc1ccc2c(c1CNc1ncc(-c3ccncc3)c3nncn13)CCO2 [Example 45, N-((5-fluoro-2,3-dihydrobenzofuran-4-yl)methyl)-8-(pyridin-4-yl)-[1,2,4]triazolo[4,3-c]pyrimidin-5-amine] | 20 | 32.8 |
| CC(c1ccc(-c2cnc(NCc3c(F)ccc4c3CCO4)n3cnnc23)cc1)N1CCCC1 (centres unmarked) [Example 46, N-((5-fluoro-2,3-dihydrobenzofuran-4-yl)methyl)-8-(4-(1-(pyrrolidin-1-yl)ethyl)phenyl)-[1,2,4]triazolo[4,3-c]pyrimidin-5-amine] | 43.5 | 64 |
| Fc1ccncc1-c1cnc(NCc2c(F)ccc3c2CCO3)n2cnnc12 [Example 47, N-((5-fluoro-2,3-dihydrobenzofuran-4-yl)methyl)-8-(4-fluoropyridin-3-yl)-[1,2,4]triazolo[4,3-c]pyrimidin-5-amine] | 5.2 | 4.9 |
| Nc1ccc(-c2cnc(NCc3cccc4c3CCO4)n3cnnc23)cn1 [Example 48, 8-(6-aminopyridin-3-yl)-N-((2,3-dihydrobenzofuran-4-yl)methyl)-[1,2,4]triazolo[4,3-c]pyrimidin-5-amine] | 12.9 | 30.2 |

The remaining lines, values ahead:

| IC50 (EED (1-441)-His protein) [nM] | IC50 [1] [nM] | SMILES |
| --- | --- | --- |
| 12.5 | 12.8 | Cc1cc(-c2cnc(NCc3cccc4c3CCO4)n3cnnc23)ccc1C(=O)N(C)C [Example 49, 4-(5-(((2,3-dihydrobenzofuran-4-yl)methyl)amino)-[1,2,4]triazolo[4,3-c]pyrimidin-8-yl)-N,N,2-trimethylbenzamide] |
| 19.1 | 41.2 | Clc1ccncc1-c1cnc(NCc2cccc3c2CCO3)n2cnnc12 [Example 50, 8-(4-chloropyridin-3-yl)-N-((2,3-dihydrobenzofuran-4-yl)methyl)-[1,2,4]triazolo[4,3-c]pyrimidin-5-amine] |
| 136 | 346 | c1cc(CNc2ncc(-c3cncnc3)c3nncn23)c2c(c1)OCC2 [Example 51, N-((2,3-dihydrobenzofuran-4-yl)methyl)-8-(pyrimidin-5-yl)-[1,2,4]triazolo[4,3-c]pyrimidin-5-amine] |
| 70.9 | 47 | Cc1ccc(-c2cnc(NCc3cccc4c3CCO4)n3cnnc23)cn1 [Example 52, N-((2,3-dihydrobenzofuran-4-yl)methyl)-8-(6-methylpyridin-3-yl)-[1,2,4]triazolo[4,3-c]pyrimidin-5-amine] |
| 12.4 | 28.7 | CN(C)CCc1ccc(-c2cnc(NCc3cccc4c3CCO4)n3cnnc23)cn1 [Example 53, N-((2,3-dihydrobenzofuran-4-yl)methyl)-8-(6-(2-(dimethylamino)ethyl)pyridin-3-yl)-[1,2,4]triazolo[4,3-c]pyrimidin-5-amine] |
| 29.1 | 54.6 | COc1ncc(-c2cnc(NCc3cccc4c3CCO4)n3cnnc23)cn1 [Example 54, N-((2,3-dihydrobenzofuran-4-yl)methyl)-8-(2-methoxypyrimidin-5-yl)-[1,2,4]triazolo[4,3-c]pyrimidin-5-amine] |
| 21.1 | 31.8 | CN(C)C(=O)c1ccc(-c2cnc(NCc3c(F)ccc4c3CCO4)n3cnnc23)cc1 [Example 55, 4-(5-(((5-fluoro-2,3-dihydrobenzofuran-4-yl)methyl)amino)-[1,2,4]triazolo[4,3-c]pyrimidin-8-yl)-N,N-dimethylbenzamide] |
| 19.6 | 30.9 | CS(=O)(=O)c1ccc(-c2cnc(NCc3c(F)ccc4c3CCO4)n3cnnc23)cn1 [Example 56, N-((5-fluoro-2,3-dihydrobenzofuran-4-yl)methyl)-8-(6-(methylsulfonyl)pyridin-3-yl)-[1,2,4]triazolo[4,3-c]pyrimidin-5-amine] |
| 8.4 | 18.6 | Cc1ccc(-c2cnc(NCc3c(F)ccc4c3CCO4)n3cnnc23)cn1 [Example 57, N-((5-fluoro-2,3-dihydrobenzofuran-4-yl)methyl)-8-(6-methylpyridin-3-yl)-[1,2,4]triazolo[4,3-c]pyrimidin-5-amine] |
| 6.3 | 13 | Nc1cc(F)c(-c2cnc(NCc3cccc4c3CCO4)n3cnnc23)cn1 [Example 58, 8-(6-amino-4-fluoropyridin-3-yl)-N-((2,3-dihydrobenzofuran-4-yl)methyl)-[1,2,4]triazolo[4,3-c]pyrimidin-5-amine] |
| 31.8 | 38.7 | Cc1noc(C)c1-c1cnc(NCc2cccc3c2CCO3)n2cnnc12 [Example 59, N-((2,3-dihydrobenzofuran-4-yl)methyl)-8-(3,5-dimethylisoxazol-4-yl)-[1,2,4]triazolo[4,3-c]pyrimidin-5-amine] |
| 19.5 | 47 | Cc1ncc(-c2cnc(NCc3cccc4c3CCO4)n3cnnc23)cn1 [Example 60, N-((2,3-dihydrobenzofuran-4-yl)methyl)-8-(2-methylpyrimidin-5-yl)-[1,2,4]triazolo[4,3-c]pyrimidin-5-amine] |
| 12.9 | 19.7 | CN(C)c1ccc(-c2cnc(NCc3cccc4c3CCO4)n3cnnc23)cn1 [Example 61, N-((2,3-dihydrobenzofuran-4-yl)methyl)-8-(6-(dimethylamino)pyridin-3-yl)-[1,2,4]triazolo[4,3-c]pyrimidin-5-amine] |
| 16 | 29.4 | N#Cc1ccc(-c2cnc(NCc3cccc4c3CCO4)n3cnnc23)cn1 [Example 62, 5-(5-(((2,3-dihydrobenzofuran-4-yl)methyl)amino)-[1,2,4]triazolo[4,3-c]pyrimidin-8-yl)picolinonitrile] |
| 75.6 | 68.6 | CCOc1ccc(-c2cnc(NCc3cccc4c3CCO4)n3cnnc23)cn1 [Example 63, N-((2,3-dihydrobenzofuran-4-yl)methyl)-8-(6-ethoxypyridin-3-yl)-[1,2,4]triazolo[4,3-c]pyrimidin-5-amine] |
